Experimental data from patent publication US9422267B2, “Fused pyrimidine compounds and use thereof” (Medivation Technologies, Inc., priority 2012, dated 2016).

Legend:
EPHA4 = EPHA4 (Homo sapiens, UniProt P54764); test: Caliper kinase profiling: EPHA4; type: biochemical; settings: EPHA4, 1 μM; read-out: Average % Inh @ 1 μM
Arg = molecular target: T1, Arg (Homo sapiens, UniProt P42684); test: Caliper kinase profiling: Arg; type: biochemical
T1 construct: purchased Caliper LifeSciences (ProfilerPro Kinase Selectivity Assay Kits)

NuaK1 = molecular target: T2, NuaK1 (Homo sapiens, UniProt O60285); test: Caliper kinase profiling: NuaK1; type: biochemical
T2 sequence (O60285 1-661): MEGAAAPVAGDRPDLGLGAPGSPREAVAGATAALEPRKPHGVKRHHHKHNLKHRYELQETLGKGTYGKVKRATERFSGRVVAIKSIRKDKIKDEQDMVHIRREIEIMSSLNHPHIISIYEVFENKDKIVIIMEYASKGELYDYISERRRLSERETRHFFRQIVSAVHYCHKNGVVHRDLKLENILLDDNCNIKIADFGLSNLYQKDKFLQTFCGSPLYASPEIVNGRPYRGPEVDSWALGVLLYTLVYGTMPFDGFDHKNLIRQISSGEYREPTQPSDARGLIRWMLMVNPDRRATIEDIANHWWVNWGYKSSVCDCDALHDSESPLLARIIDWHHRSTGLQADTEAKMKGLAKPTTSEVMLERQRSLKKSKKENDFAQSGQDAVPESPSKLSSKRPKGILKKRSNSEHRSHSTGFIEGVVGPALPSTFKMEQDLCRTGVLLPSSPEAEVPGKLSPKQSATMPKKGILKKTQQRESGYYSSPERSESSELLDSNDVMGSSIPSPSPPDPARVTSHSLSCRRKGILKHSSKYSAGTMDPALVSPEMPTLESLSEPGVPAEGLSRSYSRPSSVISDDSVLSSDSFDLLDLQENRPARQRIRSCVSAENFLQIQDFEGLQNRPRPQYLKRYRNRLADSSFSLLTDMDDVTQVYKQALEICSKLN

FRK = FRK (Homo sapiens, UniProt P42685); test: Caliper kinase profiling: FRK; type: biochemical; settings: read-out: Average % Inh @ 1 μM
[1] = test system: panel of 72 non-kinase targets (Table B14), incl. CYP450; test: Extended panel screen against non-kinase targets (LeadProfilingScreen and CYP450 assays); type: binding; settings: 72 non-kinase targets, read-out: percent inhibition of all non-kinase targets
Protocol: (§1) Compound no. The experiments were performed by Ricerca Biosciences (Painesville, Ohio) using the LeadProfilingScreen and CYP450 assays. Compound no. 8b was screened at a concentration of 1 μM. No significant hits were identified.

[2] = test system: over 50 of the panel of 72 non-kinase targets (Table B14); test: as above; type: binding; settings: read-out: percent inhibition for over 50 of the non-kinase targets tested
Protocol: as §1

T1 sequence (P42684 whole entry): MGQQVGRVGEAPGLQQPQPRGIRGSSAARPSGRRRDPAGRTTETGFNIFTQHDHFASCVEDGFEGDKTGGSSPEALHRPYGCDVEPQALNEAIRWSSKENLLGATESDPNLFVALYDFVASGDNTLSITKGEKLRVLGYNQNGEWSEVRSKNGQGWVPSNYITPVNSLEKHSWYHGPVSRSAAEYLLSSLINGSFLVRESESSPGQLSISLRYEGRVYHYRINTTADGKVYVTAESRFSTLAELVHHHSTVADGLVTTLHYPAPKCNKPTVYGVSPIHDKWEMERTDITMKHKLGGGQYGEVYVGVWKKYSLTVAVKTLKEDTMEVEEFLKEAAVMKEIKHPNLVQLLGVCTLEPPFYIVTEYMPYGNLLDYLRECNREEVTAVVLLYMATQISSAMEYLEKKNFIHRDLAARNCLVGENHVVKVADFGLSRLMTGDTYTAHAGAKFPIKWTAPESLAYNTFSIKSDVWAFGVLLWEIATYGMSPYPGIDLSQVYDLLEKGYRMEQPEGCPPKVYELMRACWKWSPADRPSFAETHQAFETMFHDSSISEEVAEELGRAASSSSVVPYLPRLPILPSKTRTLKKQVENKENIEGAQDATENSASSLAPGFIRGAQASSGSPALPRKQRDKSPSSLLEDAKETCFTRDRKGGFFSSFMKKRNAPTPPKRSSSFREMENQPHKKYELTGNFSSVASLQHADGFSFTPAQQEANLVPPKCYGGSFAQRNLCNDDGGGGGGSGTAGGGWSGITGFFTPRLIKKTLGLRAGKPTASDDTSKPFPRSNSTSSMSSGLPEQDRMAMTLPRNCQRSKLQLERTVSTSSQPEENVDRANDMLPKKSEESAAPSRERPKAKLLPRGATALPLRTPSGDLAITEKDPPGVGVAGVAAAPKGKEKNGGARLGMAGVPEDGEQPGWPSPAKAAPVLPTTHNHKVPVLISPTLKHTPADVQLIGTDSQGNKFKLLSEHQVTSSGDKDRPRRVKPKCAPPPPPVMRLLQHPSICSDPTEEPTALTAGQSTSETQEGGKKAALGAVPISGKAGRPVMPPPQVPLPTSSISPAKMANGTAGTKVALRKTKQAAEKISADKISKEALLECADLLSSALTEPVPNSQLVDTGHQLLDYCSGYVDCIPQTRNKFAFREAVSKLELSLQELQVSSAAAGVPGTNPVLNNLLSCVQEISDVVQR
Chain of EPHA4 (P54764 20-986): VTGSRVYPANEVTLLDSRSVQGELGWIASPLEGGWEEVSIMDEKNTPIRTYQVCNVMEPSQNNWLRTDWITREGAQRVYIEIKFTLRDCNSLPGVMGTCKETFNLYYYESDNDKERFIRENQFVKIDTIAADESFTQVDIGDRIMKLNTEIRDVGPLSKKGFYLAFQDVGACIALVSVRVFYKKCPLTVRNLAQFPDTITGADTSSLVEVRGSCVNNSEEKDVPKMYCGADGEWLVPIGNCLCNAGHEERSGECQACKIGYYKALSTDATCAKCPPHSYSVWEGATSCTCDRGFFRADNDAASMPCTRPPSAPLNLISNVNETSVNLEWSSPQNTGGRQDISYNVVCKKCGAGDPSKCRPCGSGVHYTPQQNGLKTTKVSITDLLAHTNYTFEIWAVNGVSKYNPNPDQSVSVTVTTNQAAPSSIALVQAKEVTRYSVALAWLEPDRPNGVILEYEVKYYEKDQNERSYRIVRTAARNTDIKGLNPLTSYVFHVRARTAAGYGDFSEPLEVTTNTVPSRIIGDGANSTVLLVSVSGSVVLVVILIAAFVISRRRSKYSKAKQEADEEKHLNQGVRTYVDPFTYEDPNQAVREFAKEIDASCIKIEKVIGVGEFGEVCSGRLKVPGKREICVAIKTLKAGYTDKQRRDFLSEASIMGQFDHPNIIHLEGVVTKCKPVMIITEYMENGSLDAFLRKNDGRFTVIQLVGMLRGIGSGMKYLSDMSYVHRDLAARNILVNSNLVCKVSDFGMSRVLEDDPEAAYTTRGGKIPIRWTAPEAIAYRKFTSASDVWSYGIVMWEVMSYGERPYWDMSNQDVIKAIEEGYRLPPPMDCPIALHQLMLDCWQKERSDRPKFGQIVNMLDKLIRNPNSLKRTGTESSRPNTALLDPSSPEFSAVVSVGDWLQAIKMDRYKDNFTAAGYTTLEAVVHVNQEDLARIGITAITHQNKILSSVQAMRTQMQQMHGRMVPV
Chain of FRK (P42685 whole entry): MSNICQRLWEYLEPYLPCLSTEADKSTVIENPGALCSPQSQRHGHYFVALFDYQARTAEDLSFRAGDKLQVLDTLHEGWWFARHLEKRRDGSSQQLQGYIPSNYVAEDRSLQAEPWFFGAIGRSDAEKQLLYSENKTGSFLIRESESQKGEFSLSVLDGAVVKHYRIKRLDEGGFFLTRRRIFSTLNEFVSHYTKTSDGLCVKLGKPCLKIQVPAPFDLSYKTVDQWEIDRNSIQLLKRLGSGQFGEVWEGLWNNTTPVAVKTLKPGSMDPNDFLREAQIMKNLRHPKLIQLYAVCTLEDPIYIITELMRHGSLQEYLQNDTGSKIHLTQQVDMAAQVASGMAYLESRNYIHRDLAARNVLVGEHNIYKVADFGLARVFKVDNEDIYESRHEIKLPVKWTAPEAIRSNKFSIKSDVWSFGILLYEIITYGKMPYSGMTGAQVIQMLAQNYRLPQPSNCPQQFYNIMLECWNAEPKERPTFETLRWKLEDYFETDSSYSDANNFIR

inhibition at 1 µM (EPHA4) [%]	inhibition at 0.01 µM (Arg; 10 nM, read-out: Average % Inh @ 10 nM) [%]	inhibition at 0.1 µM (Arg; 100 nM, read-out: Average % Inh @ 100 nM) [%]	inhibition at 1 µM (Arg; 1 μM, read-out: Average % Inh @ 1 μM) [%]	inhibition at 0.01 µM (NuaK1; NuaK1, 10 nM, read-out: Average % Inh @ 10 nM) [%]	inhibition at 0.1 µM (NuaK1; NuaK1, 100 nM, read-out: Average % Inh @ 100 nM) [%]	inhibition at 1 µM (NuaK1; NuaK1, 1 μM, read-out: Average % Inh @ 1 μM) [%]	inhibition at 1 µM (FRK) [%]	inhibition at 1 µM [1] [%]	inhibition at 1 µM [2] [%]	SMILES
40 to 59	< 39	< 39	> 60	< 39	40 to 59	> 60	> 60	–	–	O=C(Nc1ccc(F)nc1)C1CCCN1c1nc2c(c(Nc3cc(C4CC4)[nH]n3)n1)CCC2 (single isomer, unassigned) [Compound 2b, 1-(4-(5-cyclopropyl-1H-pyrazol-3-ylamino)-6,7-dihydro-5H-cyclopenta[d]pyrimidin-2-yl)-N-(6-fluoropyridin-3-yl)pyrrolidine-2-carboxamide]
–	–	–	–	–	–	–	–	< 30	< 10	CC(C)c1cc(Nc2nc(N3CCCC3C(=O)Nc3ccc(F)nc3)nc3c2CCC3)n[nH]1 (single isomer, unassigned) [Compound 8b]
